System: CD14+ cells co-cultured with a renal cell tumor line (ACHN)
Experiment: HLA-DR expression of isolated CD14+ cells co-cultured with ACHN renal cell tumor line, flow cytometry
Settings: CD14+ cells exposed to ACHN cancer cells, RU486 5 or 20 μM added day 0; compared with cells exposed to cancer cells and not treated

CC#C[C@]1(O)CC[C@H]2[C@@H]3CCC4=CC(=O)CCC4=C3[C@@H](c3ccc(N(C)C)cc3)C[C@@]21C [RU486, mifepristone]
HLA-DR expression (MFI of HLA-DR staining, FIG. 1): more HLA-DR expression than cells exposed to cancer cells and not treated with RU486
